Results from patent publication US20050148069A1, “IGF-1 instructs multipotent adult CNS neural stem cells to an oligodendroglial lineage” (priority 2003, published 2005).

Key:
[1] = system: oligodendrocytes in the hilus of the adult rat hippocampus; assay: IGF-I overexpression in vivo in the hippocampus (hilus), immunohistochemistry; settings: 4 weeks after injection
Protocol: cDNA encoding the human IGF-I gene was cloned into a recombinant AAV vector and the virus was prepared as previously described (Kaspar et al., 2002). Expression of IGF-I and {overscore (β)}gal (control AAV) was first confirmed in human embryonic kidney (HEK-293) cells by RT-PCR and Western analysis and subsequently in the hippocampus by RT-PCR analysis (unpublished data). Recombinant AAV-IGF-I (rAAV-IGF-I) or AAV-{overscore (β)}gal (rAAV-{overscore (β)}gal) was stereotaxically injected into the hippocampus (anteroposterior axis, −4.0 mm; mediolateral axis, +2.0 mm; dorsoventral axis, −3.0 from skull, with nose bar at 3.3 mm up) of anesthetized female Fischer-344 rats (150-175 g; n=6). […]
All comparative analyses were focused on the hilus of the injected side on matched hippocampal sections. For RIP or MBP staining, immunofluorescence average pixel intensity of equivalent sized fields (4 from each animal) in control and experimental groups was determined from digital images using Adobe Photoshop. To quantify the number of oligodendrocytes, sections were immunostained with GST-π. Only immunolabeled cells with a clear DAPI-positive nucleus were scored. For quantification of GST-π cells, area counts of the hilus within the dentate gyrus of the hippocampus were performed. […] The results are expressed as the average number of cells per section.

[2] = system: adult hippocampus-derived neural progenitor cells; assay: mathematical model of proliferation and differentiation rates; parameters: species or system rat; settings: 500 ng/ml IGF-I
Excerpt: Therefore, to separate the IGF-I effects on proliferation of progenitors from the instructive differentiation of progenitors to oligodendrocytes, we developed a mathematical model (as shown in FIG. 4A). This modeling approach has previously been used to quantify the effects of hippocampal astrocytes on the proliferation and neuronal differentiation of adult neural progenitor cells (Song et al., 2002). To distinguish the proliferation and differentiation rates, the model required that we count the number of RIP+ cells that were either positive or negative for BrdU at each time point. […] Because of this finding, we decided to separate the proliferation rate of RIP− (defined as α) and RIP+ cells (γ), as well as the differentiation rate (β) of RIP− to RIP+ cells. The overall death rate measured by Hoechst dye in live cultures could not be experimentally separated into a RIP− death rate (δ) and a RIP+ death rate (ε) (Song et al., 2002). Therefore, the model was bounded by the two possibilities that all cell death is from only RIP− or only RIP+ cells. We also considered the more probable assumption that the death rates for both RIP− and RIP+ cells were equal.
Six equations were used to derive values for these rates. The first equation describes the differential gain in RIP− cells: dN^RIP−/dt=(α−δ)N^RIP−−βN^RIP− (b 1) where N^RIP−is the number of RIP− cells, α is the proliferation rate of RIP− cells (per 12-h interval), β is the differentiation rate of RIP− into RIP+ cells, and δ is the death rate of RIP− cells. Similarly for RIP+ cells, dN^RIP+/dt=(γ−ε)N^RIP++βN^RIP− (2) where N^RIP+ is the number of RIP+ cells, […] is a proliferation rate of RIP+ cells, and ε is the RIP+ death rate. The sum of (1) and (2) is the equation defining total cell count: dN^Total/dt=(α−δ)N^RIP−+(γ−ε)N^RIP+ (3)
The time-course experiments were performed in 12-h intervals, allowing for measurement of the proliferation and differentiation rates at each 12-h time interval—αi is the proliferation rate of RIP− cells at time ‘i’ and so forth. […]

Question: For “IGF-I: human recombinant IGF-I (R&D Systems), growth factor polypeptide”, which “GFAP staining vs control animals” value [1] is on record?
Answer: no observable difference in GFAP staining

Question: And the “differentiation rate (β) of RIP− to RIP+ cells” value [2]?
Answer: increase in differentiation rate

Question: What about the “proliferation rate (γ) of RIP+ cells” value [2] of the same substance?
Answer: increase in the proliferation rate

Question: And the “proliferation rate of RIP− cells (α)” value [2]?
Answer: no increase in the proliferation rate of RIP− cells
